Measured values published in paper PMC8465676, “A Novel Competitive Binding Screening Assay Reveals Sennoside B as a Potent Natural Product Inhibitor of TNF-α” (Biomedicines, 2021).

Molecular target: T1, TNF-α (Homo sapiens, UniProt P01375)
T1 construct: human recombinant TNF-α (PeproTech), intact homotrimer
Assay: competitive binding by SEC/ultrafiltration with LC-MS; SPD304 displaced and bound sennoside B detected
Conditions: read-out: % inhibition of SPD304 signal (at 3.5 μM)

T1 sequence (P01375 77-233): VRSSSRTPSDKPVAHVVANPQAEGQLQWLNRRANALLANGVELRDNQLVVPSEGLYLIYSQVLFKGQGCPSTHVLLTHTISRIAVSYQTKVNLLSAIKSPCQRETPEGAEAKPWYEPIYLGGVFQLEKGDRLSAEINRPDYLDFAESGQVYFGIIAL

- inhibition at 3.5 µM: 89.4%
SMILES: O=C(O)c1cc(O)c2c(c1)[C@@H]([C@H]1c3cc(C(=O)O)cc(O)c3C(=O)c3c(O[C@@H]4O[C@H](CO)[C@@H](O)[C@H](O)[C@H]4O)cccc31)c1cccc(O[C@@H]3O[C@H](CO)[C@@H](O)[C@H](O)[C@H]3O)c1C2=O [compound 23, sennoside B]
